From paper PMC7373994 (2020)
Values belong to the compound of their own block, whether it stands above or below them.

Key:
Test in all cases: in-line probing
[1] = test system: 53 tauA (RNA, riboswitch) GGAGAGUGAGUAGAAGCGGUCAGUGCAGGCAGCUGCGCGGGACAUUGCUCAGCAA; settings: 100 mM KCl, 20 mM MgCl2, 100 mM Tris-HCl pH 8.3, 19°C; for KD: apparent; for binding: tested up to 1 mM, 53 or 68 tauA construct not specified
[2] = test system: 68 tauA (RNA, riboswitch) GGAGAGUGAGUAGAAGCGGUCAGUGCAGGCAGCUGCGCGGGACAUUGCUCAGCAACCAUUUCGCGGUUCA; settings: 100 mM KCl, 20 mM MgCl2; 100 mM Tris-HCl pH 8.3, 19°C; qualitative, wild type compared with mutants
[3] = test system: 68 tauA M1 (A12U) (RNA, riboswitch) GGAGAGUGAGUAGUAGCGGUCAGUGCAGGCAGCUGCGCGGGACAUUGCUCAGCAACCAUUUCGCGGUUCA; settings: 100 mM KCl, 20 mM MgCl2, 100 mM Tris-HCl pH 8.3, 19°C
[4] = test system: 68 tauA M2 (G38C) (RNA, riboswitch) GGAGAGUGAGUAGAAGCGGUCAGUGCAGGCAGCUGCGCGCGACAUUGCUCAGCAACCAUUUCGCGGUUCA; settings: 100 mM KCl, 20 mM MgCl2, 100 mM Tris-HCl pH 8.3, 19°C
[5] = test system: 68 tauA M3 (G6C, A7U) (RNA, riboswitch) GGAGAGUCUGUAGAAGCGGUCAGUGCAGGCAGCUGCGCGGGACAUUGCUCAGCAA; settings: 100 mM KCl, 20 mM MgCl2; 100 mM Tris-HCl pH 8.3, 19°C

KD ([1]; 36 h, two repeats): ~ 3.7 µM | binding [2]: yes | binding [3]: no | binding ([4]; artifact modulation at highest concentration): no | binding [5]: no
SMILES: O=c1[nH]c(=O)c2[nH]cnc2[nH]1

binding [1]: no
SMILES: O=c1[nH]cnc2c1ncn2[C@@H]1O[C@H](CO)[C@@H](O)[C@H]1O

binding [1]: no
SMILES: Cn1c(=O)[nH]c(=O)c2[nH]c(=O)[nH]c21

KD ([1]; Figure S2C legend prints 4.3 µM instead): ~ 25 µM | binding ([3]; tested up to 1000 µM): no | binding ([4]; tested up to 1000 µM): no
SMILES: O=c1[nH]c(=O)c2[nH]c(=O)[nH]c2[nH]1

binding [1]: no
SMILES: Cn1c(=O)[nH]c2c(=O)[nH]c(=O)[nH]c21

binding [1]: no
SMILES: Cn1c(=O)[nH]c2[nH]c(=O)[nH]c(=O)c21
